Assay results from US12258328B2, “6-membered heteroaryl-containing aminopyridine compounds as EGFR inhibitors” (YUHAN CORPORATION, priority 2021, dated 2025).
Read-outs that look alike come from different tables or passages of the source.

Experiments:
EGFR L858R/T790M/C797S = EGFR L858R/T790M/C797S (Homo sapiens, UniProt P00533, C797S/L858R/T790M); test: Biochemical EGFR kinase assay (Lance Ultra TR-FRET), triple mutant L858R/T790M/C797S
Method in brief: (§1)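 Kinase activity is measured by TR-FRET phosphopeptide detection. Compounds span 0.003 μM to 10 μM; the 1 h reaction at room temperature is quenched with EDTA, then labelled antibody (2 nM) is incubated 60 min before reading.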

EGFR del19/C797S = EGFR del19/C797S (Homo sapiens, UniProt P00533, C797S/DEL746-750); test: Biochemical EGFR kinase assay (Lance Ultra TR-FRET), double mutant del19/C797S
Method in brief: as §1

EGFR L858R/C797S = EGFR L858R/C797S (Homo sapiens, UniProt P00533, C797S/L858R); test: Biochemical EGFR kinase assay (Lance Ultra TR-FRET), double mutant L858R/C797S
Method in brief: as §1

EGFR del19/T790M/C797S = EGFR del19/T790M/C797S (Homo sapiens, UniProt P00533, C797S/DEL746-750/T790M); test: Biochemical EGFR kinase assay (Lance Ultra TR-FRET), triple mutant del19/T790M/C797S
Method in brief: as §1

EGFR wildtype = EGFR wildtype (Homo sapiens, UniProt P00533); test: Biochemical EGFR kinase assay (Lance Ultra TR-FRET), wildtype
Method in brief: as §1

[1] = ATP at Km, read-out: IC50 L858R/T790M/C797S, Km ATP
[2] = IC50 L858R/T790M/C797S, 100 μM ATP
[3] = ATP at Km, read-out: IC50 L858R/C797S, Km ATP
[4] = ATP at Km, read-out: IC50 del19/T790M/C797S, Km ATP
[5] = IC50 del19/T790M/C797S, 100 μM ATP
[6] = ATP at Km, read-out: IC50 WT, Km ATP
[7] = ATP at Km, read-out: IC50 del19/C797S, Km ATP

EGFR L858R/T790M/C797S, sequence (P00533 25-1210 T790M/C797S/L858R): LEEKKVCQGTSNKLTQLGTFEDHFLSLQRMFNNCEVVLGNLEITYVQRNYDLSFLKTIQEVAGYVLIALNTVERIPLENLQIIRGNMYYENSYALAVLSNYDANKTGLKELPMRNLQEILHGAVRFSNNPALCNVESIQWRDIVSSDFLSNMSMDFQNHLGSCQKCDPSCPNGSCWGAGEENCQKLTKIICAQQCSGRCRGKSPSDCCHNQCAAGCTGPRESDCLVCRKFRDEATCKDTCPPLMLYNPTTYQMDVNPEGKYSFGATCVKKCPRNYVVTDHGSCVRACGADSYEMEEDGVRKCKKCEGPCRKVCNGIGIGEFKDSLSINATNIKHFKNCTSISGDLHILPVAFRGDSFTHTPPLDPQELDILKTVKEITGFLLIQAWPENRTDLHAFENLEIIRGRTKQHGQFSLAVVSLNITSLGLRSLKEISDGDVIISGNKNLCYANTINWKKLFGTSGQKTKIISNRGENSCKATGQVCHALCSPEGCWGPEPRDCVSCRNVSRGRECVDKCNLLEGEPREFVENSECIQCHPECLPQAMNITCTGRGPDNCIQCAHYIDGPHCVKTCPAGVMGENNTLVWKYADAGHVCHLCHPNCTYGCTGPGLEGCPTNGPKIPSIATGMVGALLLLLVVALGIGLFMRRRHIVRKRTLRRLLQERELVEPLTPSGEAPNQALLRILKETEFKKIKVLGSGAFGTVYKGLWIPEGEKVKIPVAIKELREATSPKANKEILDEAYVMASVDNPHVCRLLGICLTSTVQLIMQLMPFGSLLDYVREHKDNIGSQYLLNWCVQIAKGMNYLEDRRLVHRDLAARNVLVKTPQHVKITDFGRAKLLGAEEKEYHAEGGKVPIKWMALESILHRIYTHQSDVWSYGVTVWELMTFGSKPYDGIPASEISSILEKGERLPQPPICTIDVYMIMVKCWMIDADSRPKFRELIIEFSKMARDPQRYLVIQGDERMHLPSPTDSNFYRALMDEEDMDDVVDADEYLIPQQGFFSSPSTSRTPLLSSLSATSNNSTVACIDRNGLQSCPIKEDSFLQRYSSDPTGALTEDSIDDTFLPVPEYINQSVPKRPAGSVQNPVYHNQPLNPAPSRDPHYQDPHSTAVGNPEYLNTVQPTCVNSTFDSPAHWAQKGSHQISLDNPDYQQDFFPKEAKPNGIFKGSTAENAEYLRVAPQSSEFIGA
EGFR del19/T790M/C797S, sequence (P00533 with tags, fused parts or gaps DEL746-750/T790M/C797S): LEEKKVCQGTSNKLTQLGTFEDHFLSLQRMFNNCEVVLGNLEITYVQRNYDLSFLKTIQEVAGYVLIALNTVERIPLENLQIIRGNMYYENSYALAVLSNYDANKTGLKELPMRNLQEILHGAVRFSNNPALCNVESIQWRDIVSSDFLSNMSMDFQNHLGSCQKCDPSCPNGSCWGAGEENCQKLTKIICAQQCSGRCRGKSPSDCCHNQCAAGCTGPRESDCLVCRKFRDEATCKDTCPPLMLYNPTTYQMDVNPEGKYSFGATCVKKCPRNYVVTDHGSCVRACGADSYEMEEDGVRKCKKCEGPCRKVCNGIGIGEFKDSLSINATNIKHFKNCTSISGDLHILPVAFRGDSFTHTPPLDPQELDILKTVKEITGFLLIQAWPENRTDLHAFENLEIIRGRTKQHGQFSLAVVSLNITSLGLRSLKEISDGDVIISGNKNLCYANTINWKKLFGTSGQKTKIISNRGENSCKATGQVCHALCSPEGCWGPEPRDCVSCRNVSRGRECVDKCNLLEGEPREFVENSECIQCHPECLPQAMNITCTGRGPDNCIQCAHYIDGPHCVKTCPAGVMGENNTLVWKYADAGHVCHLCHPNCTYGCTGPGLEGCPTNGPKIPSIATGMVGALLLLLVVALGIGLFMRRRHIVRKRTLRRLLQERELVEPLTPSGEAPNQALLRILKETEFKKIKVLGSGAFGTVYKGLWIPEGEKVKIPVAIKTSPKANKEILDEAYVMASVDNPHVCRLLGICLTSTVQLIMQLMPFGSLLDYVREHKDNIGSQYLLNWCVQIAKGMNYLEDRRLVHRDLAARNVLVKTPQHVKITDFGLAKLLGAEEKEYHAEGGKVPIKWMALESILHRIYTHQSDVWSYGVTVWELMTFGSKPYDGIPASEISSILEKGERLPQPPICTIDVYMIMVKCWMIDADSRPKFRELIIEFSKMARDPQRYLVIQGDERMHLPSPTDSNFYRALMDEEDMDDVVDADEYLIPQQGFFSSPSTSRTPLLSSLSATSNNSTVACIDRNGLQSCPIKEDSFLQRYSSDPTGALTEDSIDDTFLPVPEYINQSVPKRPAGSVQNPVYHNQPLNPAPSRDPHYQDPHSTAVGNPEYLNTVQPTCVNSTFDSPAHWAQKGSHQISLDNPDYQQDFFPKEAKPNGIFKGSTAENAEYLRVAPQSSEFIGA
EGFR del19/C797S, sequence (P00533 with tags, fused parts or gaps DEL746-750/C797S): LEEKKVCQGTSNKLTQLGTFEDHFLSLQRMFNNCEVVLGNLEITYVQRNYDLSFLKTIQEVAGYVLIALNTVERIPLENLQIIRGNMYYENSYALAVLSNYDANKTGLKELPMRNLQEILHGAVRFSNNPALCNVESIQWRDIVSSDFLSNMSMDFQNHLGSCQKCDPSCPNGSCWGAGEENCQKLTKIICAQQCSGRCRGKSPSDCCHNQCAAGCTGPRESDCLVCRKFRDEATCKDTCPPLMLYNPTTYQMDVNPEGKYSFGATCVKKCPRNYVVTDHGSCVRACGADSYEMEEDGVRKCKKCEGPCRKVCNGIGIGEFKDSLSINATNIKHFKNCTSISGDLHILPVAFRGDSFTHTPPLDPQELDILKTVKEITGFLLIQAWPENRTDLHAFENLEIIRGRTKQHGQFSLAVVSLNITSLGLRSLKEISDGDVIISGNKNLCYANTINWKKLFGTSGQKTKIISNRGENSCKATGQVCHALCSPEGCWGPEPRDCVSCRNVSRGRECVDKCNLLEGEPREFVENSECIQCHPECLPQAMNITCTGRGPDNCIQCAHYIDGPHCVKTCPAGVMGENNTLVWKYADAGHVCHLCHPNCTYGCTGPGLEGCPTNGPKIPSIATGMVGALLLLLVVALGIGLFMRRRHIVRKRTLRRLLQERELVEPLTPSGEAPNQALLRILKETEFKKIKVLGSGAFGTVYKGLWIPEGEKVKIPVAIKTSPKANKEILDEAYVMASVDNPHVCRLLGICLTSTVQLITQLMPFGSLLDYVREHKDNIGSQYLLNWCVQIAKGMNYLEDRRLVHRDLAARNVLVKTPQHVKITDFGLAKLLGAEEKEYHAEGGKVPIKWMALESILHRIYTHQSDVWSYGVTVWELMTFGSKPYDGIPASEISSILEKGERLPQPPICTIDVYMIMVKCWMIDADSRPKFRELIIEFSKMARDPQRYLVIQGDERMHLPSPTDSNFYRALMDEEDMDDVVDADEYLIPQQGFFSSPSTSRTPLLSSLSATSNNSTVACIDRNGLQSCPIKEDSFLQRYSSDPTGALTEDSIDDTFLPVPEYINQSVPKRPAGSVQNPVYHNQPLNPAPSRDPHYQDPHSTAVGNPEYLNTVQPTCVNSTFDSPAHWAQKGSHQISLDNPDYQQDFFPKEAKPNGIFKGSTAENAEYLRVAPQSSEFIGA
EGFR L858R/C797S, sequence (P00533 25-1210 C797S/L858R): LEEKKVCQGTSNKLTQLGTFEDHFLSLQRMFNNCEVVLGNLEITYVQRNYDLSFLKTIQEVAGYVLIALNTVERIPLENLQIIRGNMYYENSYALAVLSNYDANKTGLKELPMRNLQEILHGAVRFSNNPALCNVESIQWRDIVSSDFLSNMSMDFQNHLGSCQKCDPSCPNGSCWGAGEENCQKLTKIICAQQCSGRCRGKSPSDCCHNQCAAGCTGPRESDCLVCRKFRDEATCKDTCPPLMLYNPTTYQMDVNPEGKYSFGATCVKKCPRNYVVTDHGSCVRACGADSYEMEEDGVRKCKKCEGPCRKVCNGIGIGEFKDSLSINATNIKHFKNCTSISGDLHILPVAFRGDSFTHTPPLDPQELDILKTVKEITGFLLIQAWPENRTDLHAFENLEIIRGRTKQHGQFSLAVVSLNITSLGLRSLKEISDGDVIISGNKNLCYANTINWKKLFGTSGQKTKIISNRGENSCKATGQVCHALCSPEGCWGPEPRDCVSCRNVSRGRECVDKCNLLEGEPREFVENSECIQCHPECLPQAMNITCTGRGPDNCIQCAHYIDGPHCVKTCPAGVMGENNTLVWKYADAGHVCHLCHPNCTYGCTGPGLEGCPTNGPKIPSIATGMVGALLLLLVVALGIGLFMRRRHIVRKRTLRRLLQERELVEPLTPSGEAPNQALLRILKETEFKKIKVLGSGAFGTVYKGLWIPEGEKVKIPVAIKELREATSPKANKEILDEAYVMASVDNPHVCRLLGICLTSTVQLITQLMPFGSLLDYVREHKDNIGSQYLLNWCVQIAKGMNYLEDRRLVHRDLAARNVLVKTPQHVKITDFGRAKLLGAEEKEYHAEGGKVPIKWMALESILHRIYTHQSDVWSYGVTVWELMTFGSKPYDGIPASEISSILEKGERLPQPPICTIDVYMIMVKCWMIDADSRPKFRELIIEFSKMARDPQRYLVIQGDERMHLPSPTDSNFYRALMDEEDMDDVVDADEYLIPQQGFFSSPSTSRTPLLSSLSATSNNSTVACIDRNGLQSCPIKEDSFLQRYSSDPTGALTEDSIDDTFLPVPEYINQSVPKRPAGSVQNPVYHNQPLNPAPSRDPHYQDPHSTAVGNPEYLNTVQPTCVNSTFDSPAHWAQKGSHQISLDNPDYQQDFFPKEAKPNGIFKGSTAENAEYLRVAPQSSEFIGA

| Compound | IC50 (EGFR L858R/T790M/C797S; [1]) | IC50 (EGFR L858R/T790M/C797S; [2]) | IC50 (EGFR del19/C797S; IC50 del19/C797S, 100 μM ATP) | IC50 (EGFR L858R/C797S; [3]) | IC50 (EGFR L858R/C797S; IC50 L858R/C797S, 100 μM ATP) | IC50 (EGFR del19/T790M/C797S; [4]) | IC50 (EGFR del19/T790M/C797S; [5]) | IC50 (EGFR wildtype; [6]) | IC50 (EGFR wildtype; IC50 WT, 100 μM ATP) | IC50 (EGFR del19/C797S; [7]) |
| --- | --- | --- | --- | --- | --- | --- | --- | --- | --- | --- |
| C[C@]1(O)CC[C@@H](Nc2cc(Nc3ccnc(-c4cnn(S(=O)(=O)C5CC5)c4)n3)ncc2-c2cc(OCCN3CCOCC3)ccn2)CC1 [Example 211, (1s,4s)-4-((6′-((2-(1-(Cyclopropylsulfonyl)-1H-pyrazol-4-yl)pyrimidin-4-yl)amino)-4-(2-morpholinoethoxy)-[2,3′-bipyridin]-4′-yl)amino)-1-methylcyclohexan-1-ol] | 0.1 nM | 0.4 nM | 2.4 nM | 0.5 nM | 30.1 nM | 0.3 nM | 0.5 nM | 6.9 nM | 9480 nM | – |
| O=S(=O)(C1CC1)n1cc(-c2nccc(Nc3cc(N[C@H]4CC[C@@H](CO)CC4)c(-c4cc(OCCN5CCOCC5)ccn4)cn3)n2)cn1 [Example 212, ((1s,4s)-4-((6′-((2-(1-(Cyclopropylsulfonyl)-1H-pyrazol-4-yl)pyrimidin-4-yl)amino)-4-(2-morpholinoethoxy)-[2,3′-bipyridin]-4′-yl)amino)cyclohexyl)methanol] | 0.4 nM | 0.6 nM | 2.7 nM | 0.5 nM | 18.7 nM | 0.5 nM | 1 nM | 3.4 nM | 7860 nM | 1.2 nM |
| CC(C)(O)[C@H]1CC[C@@H](Nc2cc(Nc3ccnc(-c4cnn(S(=O)(=O)C5CC5)c4)n3)ncc2-c2cc(OCCN3CCOCC3)ccn2)CC1 [Example 213, 2-((1s,4s)-4-((6′-((2-(1-(Cyclopropylsulfonyl)-1H-pyrazol-4-yl)pyrimidin-4-yl)amino)-4-(2-morpholinoethoxy)-[2,3′-bipyridin]-4′-yl)amino)cyclohexyl)propan-2-ol] | 0.8 nM | 1.3 nM | 7.7 nM | 1.4 nM | 85.4 nM | 1.2 nM | – | 0.6 nM | > 10000 nM | 3.8 nM |
| O=S(=O)(C1CC1)n1cc(-c2nccc(Nc3cc(N[C@H]4CC[C@@H](CO)CC4)c(-c4cc(NC5CC(F)(F)C5)ccn4)cn3)n2)cn1 [Example 214, ((1s,4s)-4-((6′-((2-(1-(Cyclopropylsulfonyl)-1H-pyrazol-4-yl)pyrimidin-4-yl)amino)-4-((3,3-difluorocyclobutyl)amino)-[2,3′-bipyridin]-4′-yl)amino)cyclohexyl)methanol] | 3.5 nM | 4.5 nM | 8 nM | 2.2 nM | 6.9 nM | 3 nM | 5.6 nM | 4.5 nM | 711 nM | 1.8 nM |
| CC(C)(O)[C@H]1CC[C@@H](Nc2cc(Nc3ccnc(-c4cnn(S(=O)(=O)C5CC5)c4)n3)ncc2-c2cc(NC3CC(F)(F)C3)ccn2)CC1 [Example 215, 2-((1s,4s)-4-((6′-((2-(1-(Cyclopropylsulfonyl)-1H-pyrazol-4-yl)pyrimidin-4-yl)amino)-4-((3,3-difluorocyclobutyl)amino)-[2,3′-bipyridin]-4′-yl)amino)cyclohexyl)propan-2-ol] | 7.6 nM | 17.5 nM | 36.4 nM | 13.6 nM | 46.4 nM | 9.1 nM | 25.4 nM | 21.4 nM | 6110 nM | 7.8 nM |
| CN(C)C[C@H]1CC[C@@H](Nc2cc(Nc3ccnc(-c4cnn(S(=O)(=O)C5CC5)c4)n3)ncc2-c2cc(NC3CC(F)(F)C3)ccn2)CC1 [Example 216, N^6′-(2-(1-(Cyclopropylsulfonyl)-1H-pyrazol-4-yl)pyrimidin-4-yl)-N^4-(3,3-difluorocyclobutyl)-N^4′-((1s,4s)-4-((dimethylamino)methyl)cyclohexyl)-[2,3′-bipyridine]-4,4′,6′-triamine] | 0.8 nM | 0.7 nM | 1.3 nM | 0.3 nM | 1.4 nM | 1.2 nM | 1.2 nM | 0.8 nM | 136 nM | 0.8 nM |
| CC(C)(O)[C@H]1CC[C@@H](Nc2cc(Nc3ccnc(-c4cnn(S(=O)(=O)C5CC5)c4)n3)ncc2-c2ccc(OCCN3CCC3)cn2)CC1 [Example 217, 2-((1s,4s)-4-((5-(2-(Azetidin-1-yl)ethoxy)-6′-((2-(1-(cyclopropylsulfonyl)-1H-pyrazol-4-yl)pyrimidin-4-yl)amino)-[2,3′-bipyridin]-4′-yl)amino)cyclohexyl)propan-2-ol] | 0.3 nM | 0.3 nM | 0.3 nM | 0.2 nM | 0.4 nM | 0.8 nM | 0.7 nM | 0.8 nM | 118 nM | 0.2 nM |
| C[C@]1(O)CC[C@@H](Nc2cc(Nc3ccnc(-c4cnn(S(=O)(=O)C5CC5)c4)n3)ncc2-c2ccc(CC(F)(F)F)cn2)CC1 [Example 218, (1s,4s)-4-((6′-((2-(1-(Cyclopropylsulfonyl)-1H-pyrazol-4-yl)pyrimidin-4-yl)amino)-5-(2,2,2-trifluoroethyl)-[2,3′-bipyridin]-4′-yl)amino)-1-methylcyclohexan-1-ol] | 0.7 nM | 1.8 nM | 7.1 nM | 3.6 nM | 59.4 nM | 2.1 nM | 0.6 nM | 10.3 nM | > 10000 nM | – |
| O=S(=O)(C1CC1)n1cc(-c2nccc(Nc3cc(N[C@H]4CC[C@@H](CO)CC4)c(-c4ccc(CC(F)(F)F)cn4)cn3)n2)cn1 [Example 219, ((1s,4s)-4-((6′-((2-(1-(Cyclopropylsulfonyl)-1H-pyrazol-4-yl)pyrimidin-4-yl)amino)-5-(2,2,2-trifluoroethyl)-[2,3′-bipyridin]-4′-yl)amino)cyclohexyl)methanol] | – | 2.9 nM | 8.7 nM | 2.9 nM | 27.4 nM | 3.2 nM | 1.8 nM | 12.1 nM | 2670 nM | 4.9 nM |
| CC(C)(O)[C@H]1CC[C@@H](Nc2cc(Nc3ccnc(-c4cnn(S(=O)(=O)C5CC5)c4)n3)ncc2-c2ccc(CC(F)(F)F)cn2)CC1 [Example 220, 2-((1s,4s)-4-((6′-((2-(1-(Cyclopropylsulfonyl)-1H-pyrazol-4-yl)pyrimidin-4-yl)amino)-5-(2,2,2-trifluoroethyl)-[2,3′-bipyridin]-4′-yl)amino)cyclohexyl)propan-2-ol] | 5.4 nM | 9.3 nM | 30.5 nM | 25.9 nM | 289 nM | 8.5 nM | 2.3 nM | 115 nM | > 10000 nM | 27.8 nM |
| CN(C)C[C@H]1CC[C@@H](Nc2cc(Nc3ccnc(-c4cnn(S(=O)(=O)C5CC5)c4)n3)ncc2-c2ccc(CC(F)(F)F)cn2)CC1 [Example 221, N^6′-(2-(1-(Cyclopropylsulfonyl)-1H-pyrazol-4-yl)pyrimidin-4-yl)-N^4′-((1s,4s)-4-((dimethylamino)methyl)cyclohexyl)-5-(2,2,2-trifluoroethyl)-[2,3′-bipyridine]-4′,6′-diamine] | 0.3 nM | 0.5 nM | – | 1 nM | 5.7 nM | 1.1 nM | 1.4 nM | 2.1 nM | 767 nM | 1.1 nM |
| O=S(=O)(C1CC1)n1cc(-c2nccc(Nc3cc(N[C@H]4CCC[C@H](CO)C4)c(-c4ccc(CC(F)(F)F)cn4)cn3)n2)cn1 [Example 222, ((1S,3S)-3-((6′-((2-(1-(Cyclopropylsulfonyl)-1H-pyrazol-4-yl)pyrimidin-4-yl)amino)-5-(2,2,2-trifluoroethyl)-[2,3′-bipyridin]-4′-yl)amino)cyclohexyl)methanol] | 1.7 nM | 2 nM | 16.8 nM | 11.7 nM | 296 nM | 3.9 nM | 3.4 nM | 37.4 nM | > 10000 nM | 8.9 nM |
| O=S(=O)(C1CC1)n1cc(-c2nccc(Nc3cc(N[C@H]4CC[C@@H](CCO)CC4)c(-c4ccc(CC(F)(F)F)cn4)cn3)n2)cn1 [Example 223, 2-((1s,4s)-4-((6′-((2-(1-(Cyclopropylsulfonyl)-1H-pyrazol-4-yl)pyrimidin-4-yl)amino)-5-(2,2,2-trifluoroethyl)-[2,3′-bipyridin]-4′-yl)amino)cyclohexyl)ethan-1-ol] | 2.4 nM | 5 nM | 14.6 nM | 4.4 nM | 116 nM | 6.4 nM | 3.5 nM | 11.5 nM | > 10000 nM | 10.2 nM |
| C[C@]1(O)CC[C@@H](Nc2cc(Nc3ccnc(-c4cnn(S(=O)(=O)C5CC5)c4)n3)ncc2-c2ccc(N3CC(F)(F)C3)cn2)CC1 [Example 224, (1s,4s)-4-((6′-((2-(1-(Cyclopropylsulfonyl)-1H-pyrazol-4-yl)pyrimidin-4-yl)amino)-5-(3,3-difluoroazetidin-1-yl)-[2,3′-bipyridin]-4′-yl)amino)-1-methylcyclohexan-1-ol] | 0.4 nM | 1.4 nM | 3.5 nM | – | 171 nM | 2 nM | 1.6 nM | 5.2 nM | > 10000 nM | 2.1 nM |
